The record followed here is article PMC9369311, “Examination of Intracellular GPCR-Mediated Signaling with High Temporal Resolution” (International Journal of Molecular Sciences, 2022).

The structures appear in SMILES notation. Values joined by “and” are separate entries in the source; they are usually repeats but may differ in a detail not shown here. Equal values may be shown once.

Usually EC50 stands for the concentration needed to bring the measured effect to its halfway point.

The test deals with T1, DmOctα1B receptor (Drosophila melanogaster, UniProt Q7JQF1).
T1 construct: expressed in transfected cells
T1 sequence (Q7JQF1 1-645): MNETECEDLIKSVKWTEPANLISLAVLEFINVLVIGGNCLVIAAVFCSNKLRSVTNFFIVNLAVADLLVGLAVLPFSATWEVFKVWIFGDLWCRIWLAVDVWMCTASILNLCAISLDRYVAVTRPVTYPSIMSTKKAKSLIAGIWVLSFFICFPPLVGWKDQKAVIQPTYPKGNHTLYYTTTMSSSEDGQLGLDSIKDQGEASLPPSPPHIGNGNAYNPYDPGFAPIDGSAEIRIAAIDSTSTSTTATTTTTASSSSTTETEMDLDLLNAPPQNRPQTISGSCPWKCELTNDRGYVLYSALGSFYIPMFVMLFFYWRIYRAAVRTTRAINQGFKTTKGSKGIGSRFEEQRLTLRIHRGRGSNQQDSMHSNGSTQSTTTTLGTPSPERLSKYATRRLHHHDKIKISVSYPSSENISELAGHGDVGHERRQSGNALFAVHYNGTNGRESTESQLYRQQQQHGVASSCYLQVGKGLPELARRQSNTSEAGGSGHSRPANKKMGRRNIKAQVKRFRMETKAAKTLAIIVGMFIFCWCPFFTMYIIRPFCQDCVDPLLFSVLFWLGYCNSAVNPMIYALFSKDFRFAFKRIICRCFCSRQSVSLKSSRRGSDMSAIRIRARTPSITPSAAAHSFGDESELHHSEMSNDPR
Put plainly: Stopped-flow Ca2+ fluorescence measurements, DmOctα1B-expressing HEK293 cells. It counts as cell-based. The following applies: for response time: Fluo-4 or GCaMP3.0. Here is the method: As described for the fluorimetric measurements performed in 96 well plates, the stimulation of the DmOctα1B receptors with octopamine results in an efflux of Ca^2+ from the intracellular stores, which was now analyzed by stopped-flow experiments with high temporal resolution. The cells loaded with Fluo-4 or constitutively expressing GCaMP3.0 were diluted in extracellular solution (ES) to a density of 1 × 10^6 cells/mL prior to application to the stopped-flow system. The cells were mixed with increasing ligand concentrations and the fluorescence signals were monitored for 40 s (Figure 3). The increasing ligand concentrations lead to a rise in the fluorescence intensities. The initial Ca^2+ responses were detected at 1 nM octopamine and saturated at ligand concentrations ≥ 30 nM. After reaching a maximum, the fluorescence intensities decreased (Figure 3A1). This effect was more pronounced for concentrations ≤ 30 nM. In the cells expressing GCaMP3.0 (DmOctα1B-GCaMP3.0), additional increases in Ca^2+ were resolved (Figure 3B1), probably monitoring the Ca^2+ oscillations that are known to be induced upon DmOctα1B activation. To determine the ligand affinities for the receptor, the maximal fluorescence intensities were plotted against the octopamine concentrations. […] The EC50 values were obtained from nonlinear fitting of the data, using GraphPad Prism v5.04. […] Besides the determination of the EC50 values, information about reaction velocities could be gained when analyzing the first 4 s of the measurements. The increasing octopamine concentrations correlated with faster signal detection (Figure 3A2,B2). […] The reaction velocities in a concentration range from 3 nM to 300 nM octopamine were almost identical for the Fluo-4-loaded and the GCaMP3.0-expressing cells.
For the stopped-flow measurements, the SFM-400 system (BioLogic, Münster, Germany) was used. The main component of the stopped-flow setup is the SFM-400 module with four 10 mL syringes, which can be filled by external valves. The syringes are driven by step motors. The reactants can be mixed in three individual mixing chambers (M1–M3). The volume between M1 and M2 is 21 µL, and 31 µL between M2 and M3. The observation chamber is a quartz cuvette (FC-15) with a reaction volume of 31 µL, installed behind M3. To avoid fluctuations of the reaction mixture in the cuvette, which might lead to noisy and inconsistent signals, a hard stop valve located behind the cuvette can be closed after injection of the reactants. The stopped-flow module is controlled via a MPS-60 control unit (BioLogic). Data acquisition and operation of the system were performed with the Bio-Kine 32 v4.74 software (BioLogic).
The reactions in the cuvette were analyzed via the changes in the fluorescence. A 150 W Xe/Hg-lamp (ALX-220; BioLogic) was used as a light source for the excitation. The excitation light was guided via a light guide towards the cuvette. To determine the wavelength of the excitation light, a 482 nm bandpass filter (482/35 nm BrightLine® single-band bandpass filter; Semrock, Rochester, NY, USA) was used. A heat protection filter (3 mm; KG1, Schott; Mainz, Germany) was placed between the Xe/Hg-lamp and the excitation filter. The fluorescence was detected with a photomultiplier (PMS 200, BioLogic) installed rectangularly to the light path of the excitation light. Between the cuvette and the photomultiplier tube a 535 nm bandpass emission filter (XF3007 535AF35; Horiba, Oberursel, Germany) was placed to select for the emission light being detected by the photomultiplier. A voltage of 600 V was applied to the photomultiplier.
The fluorescence measurements were performed either directly with the cells expressing GCaMP3.0 or after loading the cells with Fluo-4-AM. Changes in the intracellular Ca^2+ were induced by stimulating the cells with a concentration series of different ligands. In the stopped-flow module, four different solutions can be mixed. […]

For `NCC(O)c1ccc(O)cc1` (stereo not drawn) [octopamine], the response time (low ligand concentrations ≤ 3 nM (1 nM elsewhere in the source)) was ~ 2 s and 2 s; the response time (saturating octopamine concentrations (≥30 nM; 300 nM)) was ~ 300 ms and ≈ 350 ms. Moreover, the “Signal Response Time” value (saturating concentration, DmOctα1B cells loaded with Fluo-4, mean ± SEM) was determined as 0.35 ± 0.04 s; the “Signal Response Time” value (saturating concentration, DmOctα1B-GCaMP3.0 cells, mean ± SEM) is reported as 0.36 ± 0.05 s; the Signal Response Time (saturating ligand concentration, DmOctα1B cell lines, Fluo-4 and GCaMP3.0) is recorded as 0.35 s. Also, the “concentration at which initial Ca2+ responses were detected” value (stopped-flow, DmOctα1B cells) was 1 nM. Besides, the “ligand concentration at which Ca2+ responses saturated” value (stopped-flow, DmOctα1B cells) is reported as at least 30 nM. In addition, the EC50 is, setting by setting: (stopped-flow, DmOctα1B cells loaded with Fluo-4, mean ± SEM) 2.25 nM and 2.3 nM; (stopped-flow, DmOctα1B-GCaMP3.0 cells, mean ± SEM) 1.7 ± 0.1 nM.
